# According to patent publication US20240209028A1, “CNP COMPOUNDS” (priority 2022, published 2024):
# Starred links: 1 amine or outer side, 2 acyl side, 3 side chain; linkers in the order of their positions; H or OH if unused. Positions of bridges follow the written chain, without caps; N, C: chain ends. Residues, ends and D or L forms follow the SMILES beside them. *: point of attachment. C18 diacid = O=C(O)CCCCCCCCCCCCCCCCC(=O)*; γGlu = O=C(O)[C@H](CCC(=O)[*:2])N[*:1]; AEEA = NCCOCCOCC(=O)O
# Biological target: T1, human natriuretic peptide receptor 2 (hNPR2) (Homo sapiens, UniProt P20594)
# T1 construct: expressed in transfected cells; host or cells: HEK293 (ATCC CRL-1573), clone 35, co-transfected with pGloSensor-42F
# T1 sequence (P20594 23-1047): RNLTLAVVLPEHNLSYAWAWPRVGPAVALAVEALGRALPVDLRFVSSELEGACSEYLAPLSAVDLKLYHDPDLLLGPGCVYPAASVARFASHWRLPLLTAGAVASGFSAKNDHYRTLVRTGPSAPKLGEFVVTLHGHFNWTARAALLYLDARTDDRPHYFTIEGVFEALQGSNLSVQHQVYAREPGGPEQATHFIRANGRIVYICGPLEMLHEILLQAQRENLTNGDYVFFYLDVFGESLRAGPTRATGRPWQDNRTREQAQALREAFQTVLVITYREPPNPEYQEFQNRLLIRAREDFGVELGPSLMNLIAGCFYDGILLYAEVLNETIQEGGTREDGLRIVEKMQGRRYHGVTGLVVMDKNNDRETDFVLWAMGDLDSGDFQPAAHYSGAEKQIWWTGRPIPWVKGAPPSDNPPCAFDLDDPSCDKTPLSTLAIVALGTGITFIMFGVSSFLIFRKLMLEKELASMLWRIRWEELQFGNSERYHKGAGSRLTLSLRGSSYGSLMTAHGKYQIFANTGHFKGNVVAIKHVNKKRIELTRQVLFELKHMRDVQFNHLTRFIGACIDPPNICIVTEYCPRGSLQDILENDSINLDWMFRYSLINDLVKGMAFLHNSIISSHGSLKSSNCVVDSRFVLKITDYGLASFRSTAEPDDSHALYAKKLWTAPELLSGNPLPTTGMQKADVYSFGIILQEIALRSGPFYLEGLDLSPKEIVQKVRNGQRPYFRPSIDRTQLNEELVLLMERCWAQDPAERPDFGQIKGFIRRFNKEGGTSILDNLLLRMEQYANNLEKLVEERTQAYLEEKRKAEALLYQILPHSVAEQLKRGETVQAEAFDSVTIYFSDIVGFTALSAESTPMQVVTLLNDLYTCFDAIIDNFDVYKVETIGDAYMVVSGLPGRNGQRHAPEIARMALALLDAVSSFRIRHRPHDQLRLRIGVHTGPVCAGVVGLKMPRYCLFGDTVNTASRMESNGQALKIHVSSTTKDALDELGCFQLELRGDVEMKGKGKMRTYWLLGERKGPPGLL
# Experiment: In vitro hNPR2 activity assay (cGMP GloSensor reporter, HEK293)
# Type: cell-based
# Conditions: potency relative to CNP22 (0065)
# Method in brief: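 Potency is the EC50 from a four-parameter logistic fit, also expressed relative to the in-plate CNP22 control (×100), with at least two replicates. Compounds (ten concentrations, […], HSA-free diluent with 1% OVA, 0.01% Tween20) were incubated 30 min at 37 °C on HEK293 cells co-expressing hNPR2 and a GloSensor cGMP luciferase. Luminescence detected with Bright-Glo.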
row,SMILES,hNPR2 0% HSA. [EC50% rel CNP] [%]
1,CC[C@H](C)[C@@H]1NC(=O)[C@H](CCCNC(=N)N)NC(=O)[C@H](CC(=O)O)NC(=O)[C@H](CC(C)C)NC(=O)[C@@H]2CCCN2C(=O)[C@H](CC(C)C)NC(=O)CNC(=O)[C@H](Cc2ccccc2)NC(=O)[C@@H](NC(=O)CNC(=O)[C@H](CCC(N)=O)NC(=O)[C@H](CO)NC(=O)[C@H](CC(C)C)NC(=O)CNC(=O)[C@H](CCCCN)NC(=O)[C@H](CCCCN)NC(=O)[C@H](CCC(N)=O)NC(=O)[C@H](C)NC(=O)CNC(=O)[C@H](CCCCN)NC(=O)[C@H](Cc2ccc(O)cc2)NC(=O)[C@H](CCCCN)NC(=O)[C@H](CCCNC(=N)N)NC(=O)[C@H](C)NC(=O)COCCOCCNC(=O)COCCOCCNC(=O)CC[C@H](NC(=O)CC[C@H](NC(=O)CC[C@H](NC(=O)CC[C@H](NC(=O)CCCCCCCCCCCCCCCCC(=O)O)C(=O)O)C(=O)O)C(=O)O)C(=O)O)CSSC[C@@H](C(=O)O)NC(=O)CNC(=O)[C@H](CC(C)C)NC(=O)CNC(=O)[C@H](CO)NC(=O)[C@H](CC(C)C)NC(=O)[C@H](CO)NC(=O)CNC1=O [compound 1456] ({C18 diacid-γGlu-γGlu-γGlu-γGlu-AEEA-AEEA}-ARKYKGAQKKGLSQGCFGLPLDRIGSLSGLGC-OH; disulfide 16-32),50.4
2,CC[C@H](C)[C@@H]1NC(=O)[C@H](CCCNC(=N)N)NC(=O)[C@H](CC(=O)O)NC(=O)[C@H](CC(C)C)NC(=O)[C@@H]2CCCN2C(=O)[C@H](CC(C)C)NC(=O)CNC(=O)[C@H](Cc2ccccc2)NC(=O)[C@@H](NC(=O)CNC(=O)[C@H](CCC(N)=O)NC(=O)[C@H](CO)NC(=O)[C@H](CO)NC(=O)CNC(=O)[C@H](CCCCN)NC(=O)[C@H](CCCCN)NC(=O)[C@H](CCC(N)=O)NC(=O)[C@H](C)NC(=O)CNC(=O)[C@@H]2CCCN2C(=O)[C@H](C)NC(=O)[C@H](CCC(N)=O)NC(=O)CNC(=O)[C@@H]2CCCN2C(=O)[C@H](C)NC(=O)[C@H](CCC(N)=O)NC(=O)CNC(=O)COCCOCCNC(=O)COCCOCCNC(=O)CC[C@H](NC(=O)CCCCCCCCCCCCCCCCC(=O)O)C(=O)O)CSSC[C@@H](C(=O)O)NC(=O)CNC(=O)[C@H](CC(C)C)NC(=O)CNC(=O)[C@H](CO)NC(=O)[C@H](CC(C)C)NC(=O)[C@H](CO)NC(=O)CNC1=O [compound 1458] ({C18 diacid-γGlu-AEEA-AEEA}-GQAPGQAPGAQKKGSSQGCFGLPLDRIGSLSGLGC-OH; disulfide 19-35),93.6
3,CC[C@H](C)[C@@H]1NC(=O)[C@H](CCCNC(=N)N)NC(=O)[C@H](CC(=O)O)NC(=O)[C@H](CC(C)C)NC(=O)[C@@H]2CCCN2C(=O)[C@H](CC(C)C)NC(=O)CNC(=O)[C@H](Cc2ccccc2)NC(=O)[C@@H](NC(=O)CNC(=O)[C@H](CCC(N)=O)NC(=O)[C@H](CO)NC(=O)[C@H](CO)NC(=O)CNC(=O)[C@H](CCCCN)NC(=O)[C@H](CCCCN)NC(=O)[C@H](CCC(N)=O)NC(=O)[C@H](C)NC(=O)CNC(=O)[C@H](CCCCN)NC(=O)[C@H](Cc2ccc(O)cc2)NC(=O)[C@H](CCCCN)NC(=O)[C@H](CCCNC(=N)N)NC(=O)[C@H](C)NC(=O)[C@@H]2CCCN2C(=O)[C@H](C)NC(=O)[C@H](CCC(N)=O)NC(=O)CNC(=O)COCCOCCNC(=O)COCCOCCNC(=O)CC[C@H](NC(=O)CC[C@H](NC(=O)CC[C@H](NC(=O)CC[C@H](NC(=O)CCCCCCCCCCCCCCCCC(=O)O)C(=O)O)C(=O)O)C(=O)O)C(=O)O)CSSC[C@@H](C(=O)O)NC(=O)CNC(=O)[C@H](CC(C)C)NC(=O)CNC(=O)[C@H](CO)NC(=O)[C@H](CC(C)C)NC(=O)[C@H](CO)NC(=O)CNC1=O [compound 1459] ({C18 diacid-γGlu-γGlu-γGlu-γGlu-AEEA-AEEA}-GQAPARKYKGAQKKGSSQGCFGLPLDRIGSLSGLGC-OH; disulfide 20-36),76.1
4,CC[C@H](C)[C@@H]1NC(=O)[C@H](CCCNC(=N)N)NC(=O)[C@H](CC(=O)O)NC(=O)[C@H](CC(C)C)NC(=O)[C@@H]2CCCN2C(=O)[C@H](CC(C)C)NC(=O)CNC(=O)[C@H](Cc2ccccc2)NC(=O)[C@@H](NC(=O)CNC(=O)[C@H](CCCCN)NC(=O)[C@H](CO)NC(=O)[C@H](CC(C)C)NC(=O)CNC(=O)[C@H](CCCCN)NC(=O)[C@H](CCCCN)NC(=O)[C@H](CCC(N)=O)NC(=O)[C@H](C)NC(=O)CNC(=O)[C@H](CCCCN)NC(=O)[C@H](Cc2ccc(O)cc2)NC(=O)[C@H](CCCCN)NC(=O)[C@H](CCCNC(=N)N)NC(=O)[C@H](C)NC(=O)COCCOCCNC(=O)COCCOCCNC(=O)CC[C@H](NC(=O)CC[C@H](NC(=O)CC[C@H](NC(=O)CC[C@H](NC(=O)CC[C@H](NC(=O)CC[C@H](NC(=O)CCCCCCCCCCCCCCCCC(=O)O)C(=O)O)C(=O)O)C(=O)O)C(=O)O)C(=O)O)C(=O)O)CSSC[C@@H](C(=O)O)NC(=O)CNC(=O)[C@H](CC(C)C)NC(=O)CNC(=O)[C@H](CO)NC(=O)[C@H](CC(C)C)NC(=O)[C@H](CO)NC(=O)CNC1=O [compound 1460] ({C18 diacid-γGlu-γGlu-γGlu-γGlu-γGlu-γGlu-AEEA-AEEA}-ARKYKGAQKKGLSKGCFGLPLDRIGSLSGLGC-OH; disulfide 16-32),32.4
5,CC[C@H](C)[C@@H]1NC(=O)[C@H](CCCNC(=N)N)NC(=O)[C@H](CC(=O)O)NC(=O)[C@H](CC(C)C)NC(=O)[C@@H]2CCCN2C(=O)[C@H](CC(C)C)NC(=O)CNC(=O)[C@H](Cc2ccccc2)NC(=O)[C@@H](NC(=O)CNC(=O)[C@H](CCC(N)=O)NC(=O)[C@H](CO)NC(=O)[C@H](CC(C)C)NC(=O)CNC(=O)[C@H](CCCCN)NC(=O)[C@H](CCCCN)NC(=O)[C@H](CCC(N)=O)NC(=O)[C@H](C)NC(=O)CNC(=O)[C@H](Cc2c[nH]cn2)NC(=O)[C@H](Cc2ccc(O)cc2)NC(=O)COCCOCCNC(=O)COCCOCCNC(=O)COCCOCCNC(=O)COCCOCCNC(=O)CC[C@H](NC(=O)CC[C@H](NC(=O)CCCCCCCCCCCCCCCCC(=O)O)C(=O)O)C(=O)O)CSSC[C@@H](C(=O)O)NC(=O)CNC(=O)[C@H](CC(C)C)NC(=O)CNC(=O)[C@H](CO)NC(=O)[C@H](CC(C)C)NC(=O)[C@H](CO)NC(=O)CNC1=O [compound 1461] ({C18 diacid-γGlu-γGlu-AEEA-AEEA-AEEA-AEEA}-YHGAQKKGLSQGCFGLPLDRIGSLSGLGC-OH; disulfide 13-29),28.9
6,CC[C@H](C)[C@@H]1NC(=O)[C@H](CCCNC(=N)N)NC(=O)[C@H](CC(=O)O)NC(=O)[C@H](CC(C)C)NC(=O)[C@@H]2CCCN2C(=O)[C@H](CC(C)C)NC(=O)CNC(=O)[C@H](Cc2ccccc2)NC(=O)[C@@H](NC(=O)CNC(=O)[C@H](CCCCN)NC(=O)[C@H](CO)NC(=O)[C@H](CC(C)C)NC(=O)CNC(=O)[C@H](CCCCN)NC(=O)[C@H](CCCCN)NC(=O)[C@H](CCC(N)=O)NC(=O)[C@H](C)NC(=O)CNC(=O)[C@H](CCCCN)NC(=O)[C@H](Cc2ccc(O)cc2)NC(=O)[C@H](CCCCN)NC(=O)[C@H](CCCNC(=N)N)NC(=O)[C@H](C)NC(=O)COCCOCCNC(=O)COCCOCCNC(=O)COCCOCCNC(=O)COCCOCCNC(=O)CC[C@H](NC(=O)CC[C@H](NC(=O)CC[C@H](NC(=O)CC[C@H](NC(=O)CC[C@H](NC(=O)CCCCCCCCCCCCCCCCC(=O)O)C(=O)O)C(=O)O)C(=O)O)C(=O)O)C(=O)O)CSSC[C@@H](C(=O)O)NC(=O)CNC(=O)[C@H](CC(C)C)NC(=O)CNC(=O)[C@H](CO)NC(=O)[C@H](CC(C)C)NC(=O)[C@H](CO)NC(=O)CNC1=O [compound 1462] ({C18 diacid-γGlu-γGlu-γGlu-γGlu-γGlu-AEEA-AEEA-AEEA-AEEA}-ARKYKGAQKKGLSKGCFGLPLDRIGSLSGLGC-OH; disulfide 16-32),106.6
